Experiments:
[1] = target: Tyrosine-protein kinase BTK (Homo sapiens, UniProt Q06187); assay: Inhibition of full length recombinant human N-terminal His tagged […] expressed in baculovirus infected Sf9 insect cells using poly (Glu,Tyr)4:1 as substrate pretreated for 60 mins followed by substrate addition after 1 hr by ADP-Glo luminescence assay
[2] = target: Epidermal growth factor receptor (Homo sapiens, UniProt P00533); assay: Inhibition of recombinant human N-terminal GST-tagged wild-type EGFR (695 to end residues) expressed in baculovirus infected Sf9 insect cells using poly (Glu,Tyr)4:1 as substrate pretreated for 60 mins followed by substrate addition after 1 hr by ADP-Glo luminescence assay
Chain of Epidermal growth factor receptor (P00533 whole entry): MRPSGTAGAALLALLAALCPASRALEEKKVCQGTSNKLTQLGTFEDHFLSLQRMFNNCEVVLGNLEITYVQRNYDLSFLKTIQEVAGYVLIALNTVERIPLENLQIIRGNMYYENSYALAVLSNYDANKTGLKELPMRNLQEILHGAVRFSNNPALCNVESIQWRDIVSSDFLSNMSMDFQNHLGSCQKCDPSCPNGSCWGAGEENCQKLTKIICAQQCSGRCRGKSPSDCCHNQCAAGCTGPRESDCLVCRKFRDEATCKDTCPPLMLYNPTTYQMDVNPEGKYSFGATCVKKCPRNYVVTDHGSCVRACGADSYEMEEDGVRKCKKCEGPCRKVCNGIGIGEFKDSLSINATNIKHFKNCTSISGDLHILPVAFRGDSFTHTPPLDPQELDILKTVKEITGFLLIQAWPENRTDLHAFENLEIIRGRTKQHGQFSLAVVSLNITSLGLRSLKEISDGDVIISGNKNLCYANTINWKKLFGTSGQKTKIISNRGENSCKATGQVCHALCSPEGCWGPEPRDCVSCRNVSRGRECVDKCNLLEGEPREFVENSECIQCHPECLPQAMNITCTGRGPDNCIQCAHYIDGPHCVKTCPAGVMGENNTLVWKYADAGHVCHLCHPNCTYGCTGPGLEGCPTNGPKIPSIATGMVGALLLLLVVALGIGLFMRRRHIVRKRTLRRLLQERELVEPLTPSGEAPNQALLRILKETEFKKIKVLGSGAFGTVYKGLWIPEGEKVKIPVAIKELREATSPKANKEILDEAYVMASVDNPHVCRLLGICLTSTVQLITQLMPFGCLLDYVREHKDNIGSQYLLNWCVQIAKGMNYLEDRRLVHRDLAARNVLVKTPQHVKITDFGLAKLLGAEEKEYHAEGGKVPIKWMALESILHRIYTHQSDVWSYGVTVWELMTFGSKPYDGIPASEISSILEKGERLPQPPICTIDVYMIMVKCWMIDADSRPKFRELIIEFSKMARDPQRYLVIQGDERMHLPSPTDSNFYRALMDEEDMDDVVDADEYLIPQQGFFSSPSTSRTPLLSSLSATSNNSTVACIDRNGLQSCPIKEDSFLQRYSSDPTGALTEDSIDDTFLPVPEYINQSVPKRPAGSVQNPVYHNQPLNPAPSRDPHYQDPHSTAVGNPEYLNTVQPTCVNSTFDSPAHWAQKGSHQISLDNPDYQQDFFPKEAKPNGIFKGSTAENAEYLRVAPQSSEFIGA

[3] = target: T1, Tyrosine-protein kinase JAK3 (Homo sapiens, UniProt P52333); assay: Inhibition of recombinant human N-terminal GST-tagged JAK3 (781 to end residues) expressed in baculovirus infected Sf9 insect cells using poly (Glu,Tyr)4:1 as substrate pretreated for 60 mins followed by substrate addition after 1 hr by ADP-Glo luminescence assay
T1 sequence (P52333 whole entry): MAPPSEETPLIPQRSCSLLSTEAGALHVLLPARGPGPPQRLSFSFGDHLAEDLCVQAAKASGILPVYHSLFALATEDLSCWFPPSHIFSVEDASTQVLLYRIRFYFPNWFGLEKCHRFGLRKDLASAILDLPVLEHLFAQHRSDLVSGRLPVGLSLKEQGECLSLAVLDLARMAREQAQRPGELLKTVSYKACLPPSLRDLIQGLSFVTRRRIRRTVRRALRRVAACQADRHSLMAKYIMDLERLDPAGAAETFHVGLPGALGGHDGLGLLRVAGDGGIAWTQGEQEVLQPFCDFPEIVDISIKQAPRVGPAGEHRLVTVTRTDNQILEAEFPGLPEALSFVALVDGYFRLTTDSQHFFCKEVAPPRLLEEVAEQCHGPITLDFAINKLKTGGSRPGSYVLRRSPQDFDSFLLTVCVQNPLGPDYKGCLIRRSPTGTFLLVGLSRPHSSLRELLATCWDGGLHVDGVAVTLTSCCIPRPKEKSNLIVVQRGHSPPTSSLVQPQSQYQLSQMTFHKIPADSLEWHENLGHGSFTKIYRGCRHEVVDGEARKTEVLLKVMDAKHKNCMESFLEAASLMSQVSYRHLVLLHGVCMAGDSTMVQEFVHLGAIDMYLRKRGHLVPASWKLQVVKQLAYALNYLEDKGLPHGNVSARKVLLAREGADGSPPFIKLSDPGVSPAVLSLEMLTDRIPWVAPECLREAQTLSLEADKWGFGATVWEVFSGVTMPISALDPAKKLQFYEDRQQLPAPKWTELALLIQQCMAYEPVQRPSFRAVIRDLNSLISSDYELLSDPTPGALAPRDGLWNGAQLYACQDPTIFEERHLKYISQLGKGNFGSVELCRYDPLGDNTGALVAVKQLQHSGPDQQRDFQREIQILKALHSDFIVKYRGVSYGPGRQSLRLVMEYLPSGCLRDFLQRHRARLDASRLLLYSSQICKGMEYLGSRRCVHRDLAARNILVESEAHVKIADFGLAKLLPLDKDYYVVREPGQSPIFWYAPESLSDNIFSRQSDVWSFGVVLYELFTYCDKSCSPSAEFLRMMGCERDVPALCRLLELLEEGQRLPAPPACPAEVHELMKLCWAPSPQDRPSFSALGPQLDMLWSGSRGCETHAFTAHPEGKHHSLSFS

Chain of Tyrosine-protein kinase BTK (Q06187 whole entry): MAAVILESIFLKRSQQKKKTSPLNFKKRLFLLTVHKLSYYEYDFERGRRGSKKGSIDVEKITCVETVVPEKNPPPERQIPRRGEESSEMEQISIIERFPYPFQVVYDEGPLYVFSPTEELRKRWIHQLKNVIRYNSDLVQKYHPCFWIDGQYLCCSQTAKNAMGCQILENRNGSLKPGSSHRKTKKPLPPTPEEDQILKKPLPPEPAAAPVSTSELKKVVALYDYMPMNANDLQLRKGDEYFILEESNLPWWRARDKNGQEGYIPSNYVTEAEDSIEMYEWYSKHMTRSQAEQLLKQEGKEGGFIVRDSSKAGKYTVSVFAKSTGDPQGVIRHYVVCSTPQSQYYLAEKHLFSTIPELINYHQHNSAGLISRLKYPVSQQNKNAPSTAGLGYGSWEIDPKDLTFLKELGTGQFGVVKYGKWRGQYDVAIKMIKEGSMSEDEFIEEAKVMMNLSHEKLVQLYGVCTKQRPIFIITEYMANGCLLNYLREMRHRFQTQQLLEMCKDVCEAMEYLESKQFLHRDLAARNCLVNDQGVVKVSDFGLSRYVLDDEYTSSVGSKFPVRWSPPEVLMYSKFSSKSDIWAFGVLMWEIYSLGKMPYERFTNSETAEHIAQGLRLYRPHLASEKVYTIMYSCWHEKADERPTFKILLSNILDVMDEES

IC50 [1] [nM]	IC50 [2] [nM]	IC50 [3] [nM]	Compound
21			C=CC(=O)Nc1cc(Nc2cc(-c3cccc(NC(=O)c4ccc(C(C)(C)C)cc4)c3C)cn(C)c2=O)ccc1C(=O)N1CCCC(O)C1 (configuration not stated)
34			C=CC(=O)Nc1cc(Nc2cc(-c3cccc(NC(=O)c4ccc(C(C)(C)C)cc4)c3C)cn(C)c2=O)ccc1C(=O)N(C)C
> 10000			C=CC(=O)NC1CCCN(c2cc(-c3cccc(NC(=O)c4ccc(N(C)C)cc4)c3C)cn(C)c2=O)C1 (configuration not stated)
282			C=CC(=O)Nc1cc(Nc2cc(-c3cccc(NC(=O)c4ccc5c(c4)OCO5)c3C)cn(C)c2=O)ccc1C(=O)N1CCOCC1
	72	1700	C=CC(=O)Nc1cccc(Nc2ncc(NC(=O)c3cc(NC(=O)c4cccc(C(F)(F)F)c4)ccc3C)cn2)c1
63			Cc1c(NC(=O)c2ccc(C(C)(C)C)cc2)cccc1-c1cc(Nc2ccc(C(=O)N3CCOCC3)c(NC(=O)CCl)c2)c(=O)n(C)c1
1190			C=CC(=O)Nc1cc(Nc2cc(-c3cccc(NC(=O)c4cccc(OC)c4)c3C)cn(C)c2=O)ccc1C(=O)N1CCOCC1
68			C=CC(=O)Nc1cc(Nc2cc(-c3cccc(NC(=O)c4ccc(C(C)(C)C)cc4)c3C)cn(C)c2=O)ccc1C(=O)N1CCN(C(=O)OC(C)(C)C)CC1
197			C=CC(=O)Nc1cc(Nc2cc(-c3cccc(NC(=O)c4ccc(C(C)(C)C)cc4)c3C)cn(C)c2=O)ccc1C(=O)OC
		1530	C=CC(=O)Nc1cccc(Nc2nc(Nc3ccc(Oc4ccnc(C(=O)NC)c4)cc3)ncc2F)c1
57			C=CC(=O)Nc1cc(Nc2cc(-c3cccc(NC(=O)c4ccc5c(c4)CCCC5)c3C)cn(C)c2=O)ccc1C(=O)N1CCOCC1
> 10000			C=CC(=O)Nc1cc(Nc2cc(-c3cccc(NC(=O)c4cccc(C(F)(F)F)c4)c3C)cn(C)c2=O)ccc1C(=O)N1CCOCC1
127			C=CC(=O)Nc1cc(Nc2cc(-c3cccc(NC(=O)c4ccc(C(C)(C)C)cc4)c3C)cn(C)c2=O)ccc1C(=O)N1CCN(C)CC1
> 10000			C=CC(=O)N1CCC(Nc2cc(-c3cccc(NC(=O)c4ccc(N(C)C)cc4)c3C)cn(C)c2=O)CC1
210			C=CC(=O)Nc1cc(Nc2cc(-c3cccc(NC(=O)c4ccc(CC)cc4)c3C)cn(C)c2=O)ccc1C(=O)N1CCOCC1
65			C=CC(=O)Nc1cc(Nc2cc(-c3cccc(NC(=O)c4ccc(C(C)(C)C)cc4)c3C)cn(C)c2=O)ccc1C(=O)N1CCC(OC)CC1
86			C=CC(=O)Nc1cc(Nc2cc(-c3cccc(NC(=O)c4ccc(N5CCCC5)cc4)c3C)cn(C)c2=O)ccc1C(=O)N1CCOCC1
3190			C=CC(=O)Nc1cc(Nc2cc(-c3cccc(NC(=O)c4ccc(N(C)C)cc4)c3C)cn(C)c2=O)ccc1C(=O)N(CCOCC)CCOCC
	442	1750	C=CC(=O)Nc1cccc(Nc2nc(Nc3ccc(OCCOC)cc3)ncc2F)c1 [SPEBRUTINIB]
1700			C=CC(=O)Nc1ccc(NC(=O)c2ccc(C(C)(C)C)cc2)c(C)c1-c1cc(Nc2ccc(C(=O)N3CCOCC3)cc2)c(=O)n(C)c1

Reference: ChEMBL document CHEMBL4024706 (Eur J Med Chem, 2017)
